1 compound from US20130189764A1, “SELECTIVE GROWTH MEDIA” (Oxide Limited, priority 2000, published 2013) can be followed below.

Converted amounts (≈) assume the structure as drawn.

One test has as its system Salmonella virchow 703. As to the kind of experiment: MIC / growth in DMSal (Example 16). It counts as cell-based. Particulars: Salmonella virchow 703, DMSal, 1.5 μg/ml. Here is the method: (§1) The experiments were conducted as follows: nutrient agar medium was autoclaved and, on cooling (but prior to setting) filter-sterilised alaphosphin or AEP were incorporated at final concentrations of 1 mM, 2 mM, 5 mM and 10 mM, and the medium used to pour plates. Control plates were prepared using nutrient agar without alaphosphin or AEP. A single colony of the organism under test was inoculated in 10 ml of nutrient broth and incubated (without agitation) at 37° C. for 4 hours.
(§2) Trp-AEP was compared to alaphosphin (Ala-AEP) for selective growth of Salmonella strains on DMSal agar.

In test [1] the test system is Klebsiella pneumoniae 411. Briefly: MIC / growth in DMSal (Example 16). The format is cell-based. The conditions noted are these: Klebsiella pneumoniae 411, DMSal, 1.5 μg/ml. Here is the method:
as §1, §2

The test system of test [2] is Salmonella typhimurium 722. Briefly: MIC / growth in DMSal (Example 16). The format is cell-based. The conditions noted are these: Salmonella typhimurium 722, DMSal, 1.5 μg/ml. The method, then:
as §1, §2

In the next test the test system is Klebsiella aerogenes 323. As to the kind of experiment: MIC / growth in DMSal (Example 16). The conditions noted are these: Klebsiella aerogenes 323, DMSal, 1.5 μg/ml. It counts as cell-based. The method, then:
as §1, §2

Test [3] deals with Salmonella enteriditis 723. Briefly: MIC / growth in DMSal (Example 16). It counts as cell-based. Particulars: Salmonella enteriditis 723, DMSal, 1.5 μg/ml. Here is the method:
as §1, §2

The test system of test [4] is Citrobacter freundii 370. As to the kind of experiment: MIC / growth in DMSal (Example 16). It counts as cell-based. Particulars: Citrobacter freundii 370, DMSal, 1.5 μg/ml. Here is the method: as §1, §2
The test system of the next test is Serratia marcescens 217. Briefly: MIC / growth in DMSal (Example 16). It counts as cell-based. Particulars: Serratia marcescens 217, DMSal, 1.5 μg/ml. The method, then: as §1, §2
In a further test the test system is Salmonella arizonae 1200. As to the kind of experiment: MIC / growth in DMSal (Example 16). The format is cell-based. The conditions noted are these: Salmonella arizonae 1200, DMSal, 1.5 μg/ml. The method, then: as §1, §2
The next test has as its system S. aureus OCC 102. Briefly: growth on nutrient agar, mixed culture with K. pneumoniae (Example 6). It counts as cell-based, Staphylococcus aureus. The conditions noted are these: S. aureus in mixed culture with K. pneumoniae. The source says:
Example 1 was repeated, this time using a mixed culture of K. pneumoniae CMCC 3077 and S. aureus OCC 102. The results for growth in the presence of AEP or alaphosphin are shown in FIGS. 7 and 8 respectively: empty columns represent growth of S. aureus, the shaded columns represent growth of K. pneumoniae. […] Accordingly, there is a considerable alaphosphin concentration range over which S. aureus will readily grow whilst K. pneumoniae will be inhibited. Even if K. pneumoniae cells lyse due to the toxic effect of AEP released intracellularly, the AEP is not toxic for S. aureus at the concentrations involved.

For test [5], the system named is Salmonella typhimurium 722. Briefly: MIC in DMSal medium (Example 17). The format is cell-based. Particulars: Salmonella enterica, TYPHIMURIUM
The method, then:
Isoleucyl-AEP and sarcosyl-alanyl-AEP were compared to ala-AEP (all in DMSal medium) for the ability to selectively recover two clinically important pathogenic bacteria: Salmonella and Staphylococcus aureus.
For selective growth of Salmonella inhibition of Citrobacter, Enterobacter sakazakii and E. coli is important. […] Sarcosyl-alanyl-AEP used at a concentration of 1.0 μg/ml is sufficient to inhibit the growth of all three undesired bacteria while having no effect on growth of Salmonella typhimurium. […] Alternatively, a concentration of 2.0 μg/ml of isoleucyl-AEP is required to inhibit the growth of Citrobacter, Enterobacter sakazakii and E. coli and this concentration has no effect on the Salmonella typhimurium strain tested.

The subject of the next test is E. coli strains. Briefly: inhibition of E. coli strains on DMSal agar for selective growth of Salmonella (Example 16). The format is cell-based, Escherichia coli. The conditions noted are these: DMSal agar. Here is the method: as §1, §2
For test [6], the system named is Staphylococcus aureus OCC 102. As to the kind of experiment: growth on nutrient agar streak plates, pure culture (Example 5). The format is cell-based. Particulars: S. aureus OCC 102, nutrient agar, 0-10 mM tested. The source says:
Example 1 was repeated using Staphylococcus aureus OCC 102 as the test organism.

Test [7] deals with Klebsiella pneumoniae CMCC 3077. Briefly: growth on nutrient agar streak plates, pure culture (Example 4). It counts as cell-based. The conditions noted are these: K. pneumoniae CMCC 3077, nutrient agar, 0-10 mM tested. The source says:
Example 1 was repeated using Klebsiella pneumoniae CMCC 3077 as the test organism. The results are shown in FIG. 5, and are qualitatively similar to those obtained in example 2.

Test [8] has as its system Klebsiella pneumoniae CMCC3077. Briefly: total viable count in Nutrient Broth (Example 10). The format is cell-based. The conditions noted are these: 5 mM in Nutrient Broth, within a 4 hour period. The method, then: Growth curve data on the activity of alaphosphin towards Klebsiella spp. was generated. Particular attention was paid to measuring the kinetics of inhibition in broth culture. The media used in this work were Buffered Peptone Water, Nutrient Broth and Tryptone Soya Agar. The media were prepared according to the manufacturer's instructions.
The selective agents, AEP (Cat. No. 06655) and alaphosphin (Cat. No. 05260), were supplied by Fluka. They were dissolved in water at 0.5M concentration, filter-sterilised, and 100 μl added to 10 ml of Nutrient Broth to give a final concentration in the test medium of 5 mM of AEP or alaphosphin respectively.
Klebsiella pneumnoniae CMCC3077 was chosen, as it is a food isolate and work had been carried out previously on this organism using alaphosphin and AEP (see preceding examples). The organism was inoculated into Nutrient Broth and incubated overnight at 37° C. […] The test media were incubated at 37° C., and sampled at hourly intervals. The cultures were serially diluted in Buffered Peptone Water and inoculated onto Tryptone Soya Agar. These plates were incubated overnight at 37° C. and the total viable count made the next day.
Typical results are shown in FIG. 15 which is a graph of total viable count (log10 cfu/ml) against time (hours).

The subject of a further test is E. coli 607. Briefly: MIC in DMSal medium (Example 17). It counts as cell-based. Particulars: Escherichia coli, 607.
For the next test, the system named is K. pneumoniae CMCC 3077. As to the kind of experiment: growth on nutrient agar, mixed culture with B. subtilis (Example 8). The format is cell-based, Klebsiella pneumoniae. The conditions noted are these: K. pneumoniae in mixed culture with B. subtilis, nutrient agar. From the text: Example 6 was repeated, this time using a mixed culture of B. subtilis OCC 214 and K. pneumoniae CMCC 3077, in the presence of AEP or alaphosphin. The empty columns show the growth of B. subtilis, the shaded columns denote growth of K. pneumoniae.

For test [9], the system named is Citrobacter freundii 370. Briefly: MIC in DMSal medium (Example 17). It counts as cell-based. Particulars: Citrobacter freundii, 370.

By MIC is commonly meant the least concentration at which growth counts as inhibited.

In the case of `C[C@H](N)C(=O)N[C@@H](C)P(=O)(O)O` [alaphosphin, L-alanyl-L-1-aminoethylphosphonic acid], the “growth with Ala-AEP (1.5 μg/ml)” value (in the test on Salmonella virchow 703; in [1]; in test [2]; with Klebsiella aerogenes 323; in test [3]; with Citrobacter freundii 370 [4]) was “Growth” in each case. The “growth with Ala-AEP (1.5 μg/ml)” value in the test on Serratia marcescens 217 and in the test on Salmonella arizonae 1200 was “Growth” in each case. Besides, the “concentration at which growth is inhibited” value in the test on S. aureus OCC 102 came to 10 mM. The results for the MIC (in test [5]; in the test on E. coli 607; with Citrobacter freundii 370 [9]) were 2 µg/mL (≈ 10.2 µM), 0.1 µg/mL (≈ 0.51 µM) and 1 µg/mL (≈ 5.1 µM), respectively. In addition, the “concentration needed to inhibit the growth of E. coli strains” value in the test on E. coli strains was determined as 1.5 µg/mL. Further, the “concentration at which growth is completely inhibited” value in test [6] is on record as 10 mM; in [7], at least 2 mM; with K. pneumoniae CMCC 3077, at least 2 mM. Further, the “reduction in the viable count” value in [8] is recorded as “two to three log reduction”.
